Test results published in patent publication US20140051877A1, “EICOSAPENTAENOIC ACID (EPA) AS POLYUNSATURATED FREE FATTY ACID IN ITS DIRECTLY COMPRESSIBLE POWDER FORM AND PROCESS OF ISOLATION THEREOF” (priority 2011, published 2014).

What was measured:
[1] = Physical characterisation of isolated EPA: solubility; type: physicochemical; conditions: solvent chloroform; isolated EPA free fatty acid powder
Method: Take 1 litre of fish oil. Maintain temperature to 40-45° C. To it add 1-2% methanolic or ethanolic or propanolic or butanolic sodium or potassium hydroxide 1 litre and stir for ½ an hour. keep aside, it separates into 2 layers, discard an upper layer which contains lower fatty acids. It further separates in to two layers, discard the upper layer. Then in lower layer add 750 ml of acetone or ethyl/ methyl ketone and stir for ½ an hour and keep aside for 20 mins. It precipitates and form two phase (solid and liquid) filter it and discard the solid layer. In the lower liquid layer, after ½ an hour, settle solid compound. On filtration, the solid compound separates. Wash the solid compound 2-3 times with 400 ml of acetone and Evaporate and recover the solvent with temperature not exceeding 40 degree C. This leads to drying of the precipitated EPA at room temperature to form the crystalline mass. The same is passed through the sieve to obtain a dry, directly compressible, free flowing powder of free fatty acid EPA thereof.
Cool fish oil to 12 degree C. to solidify all fatty acids in waxy form which separates from the fish oil. […] It is washed 2-3 times with equal quantity of acetone and Evaporate and recover the solvent with temperature not exceeding 40 degree C. […]

[2] = Stability of EPA powder at room temperature; type: physicochemical; conditions: powder form, no antioxidants added

**Q.** With CC/C=C\C/C=C\C/C=C\C/C=C\C/C=C\CCCC(=O)O [EPA, Eicosapentaenoic acid] as the compound, how does the Solubility [1] read?
**A.** Its Solubility is “freely soluble in chloroform”.

**Q.** And the Stability [2]?
**A.** The Stability was “stable at room temperature”.
